# Laboratory results reported in the supplement of paper PMC10307832.
# Columns and labels:
# Assay in all cases: relative viability (nuclei count vs DMSO), 5 days (fraction); higher = more cells survive
# A-427 = tested on: A-427
# Summary of the method: (§1)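 Lung cancer cell lines in 1536-well plates got either a single drug or a fixed anchor-drug dose together with five library-drug doses (not always all listed) in √10 steps, by pin tool, on the day after seeding. Nuclei were counted after 5 days, and relative viability is the treated-to-vehicle ratio of nuclei counts. Values are medians of duplicate plates.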
# CAL-12T = tested on: CAL-12T
# Summary of the method: as §1
# COR-L 105 = tested on: COR-L 105
# Summary of the method: as §1
# EMC-BAC-2 = tested on: EMC-BAC-2
# Summary of the method: as §1
# HARA = tested on: HARA
# Summary of the method: as §1
# HCC-366 = tested on: HCC-366
# Summary of the method: as §1
# HCC-827 = tested on: HCC-827
# Summary of the method: as §1
# HOP-62 = tested on: HOP-62
# Summary of the method: as §1
# LCLC-103H = tested on: LCLC-103H
# Summary of the method: as §1
# NCI-H1395 = tested on: NCI-H1395
# Summary of the method: as §1
# NCI-H1437 = tested on: NCI-H1437
# Summary of the method: as §1
# NCI-H1755 = tested on: NCI-H1755
# Summary of the method: as §1
# NCI-H1792 = tested on: NCI-H1792
# Summary of the method: as §1
# NCI-H1915 = tested on: NCI-H1915
# Summary of the method: as §1
# NCI-H2009 = tested on: NCI-H2009
# Summary of the method: as §1
# NCI-H2228 = tested on: NCI-H2228
# Summary of the method: as §1
# NCI-H23 = tested on: NCI-H23
# Summary of the method: as §1
# NCI-H460 = tested on: NCI-H460
# Summary of the method: as §1
# NCI-H522 = tested on: NCI-H522
# Summary of the method: as §1
# SK-LU-1 = tested on: SK-LU-1
# Summary of the method: as §1
# SW 1573 = tested on: SW 1573
# Summary of the method: as §1
compound,measurement,setting,value
CCN(CC)CCCCNc1ncc2cc(-c3cc(OC)cc(OC)c3)c(NC(=O)NC(C)(C)C)nc2n1 + Nc1nc2[nH]cc(CCc3ccc(C(=O)N[C@@H](CCC(=O)O)C(=O)O)cc3)c2c(=O)[nH]1 [Pemetrexed] (partner 0.2 µM),relative viability,A-427; first compound 0.01 µM,1.01
same,relative viability,A-427; first compound 0.03162 µM,1
same,relative viability,A-427; first compound 0.1 µM,1.06
same,relative viability,A-427; first compound 0.3162 µM,1.23
same,relative viability,A-427; first compound 1 µM,0.965
same,relative viability,CAL-12T; first compound 0.01 µM,1.4
same,relative viability,CAL-12T; first compound 0.03162 µM,1.2
same,relative viability,CAL-12T; first compound 0.1 µM,1.53
same,relative viability,CAL-12T; first compound 0.3162 µM,1.44
same,relative viability,CAL-12T; first compound 1 µM,1.1
same,relative viability,COR-L 105; first compound 0.01 µM,1.23
same,relative viability,COR-L 105; first compound 0.03162 µM,1.12
same,relative viability,COR-L 105; first compound 0.1 µM,1.18
same,relative viability,COR-L 105; first compound 0.3162 µM,1.47
same,relative viability,COR-L 105; first compound 1 µM,1.05
same,relative viability,EMC-BAC-2; first compound 0.03162 µM,0.46
same,relative viability,EMC-BAC-2; first compound 0.1 µM,0.491
same,relative viability,EMC-BAC-2; first compound 0.3162 µM,0.479
same,relative viability,EMC-BAC-2; first compound 1 µM,0.489
same,relative viability,HARA; first compound 0.01 µM,0.202
same,relative viability,HARA; first compound 0.03162 µM,0.234
same,relative viability,HARA; first compound 0.1 µM,0.279
same,relative viability,HARA; first compound 0.3162 µM,0.22
same,relative viability,HARA; first compound 1 µM,0.281
same,relative viability,HCC-366; first compound 0.01 µM,0.164
same,relative viability,HCC-366; first compound 0.03162 µM,0.172
same,relative viability,HCC-366; first compound 0.1 µM,0.19
same,relative viability,HCC-366; first compound 0.3162 µM,0.172
same,relative viability,HCC-366; first compound 1 µM,0.191
same,relative viability,HCC-827; first compound 0.01 µM,0.266
same,relative viability,HCC-827; first compound 0.03162 µM,0.261
same,relative viability,HCC-827; first compound 0.1 µM,0.265
same,relative viability,HCC-827; first compound 0.3162 µM,0.269
same,relative viability,HCC-827; first compound 1 µM,0.244
same,relative viability,HOP-62; first compound 0.01 µM,0.33
same,relative viability,HOP-62; first compound 0.03162 µM,0.275
same,relative viability,HOP-62; first compound 0.1 µM,0.362
same,relative viability,HOP-62; first compound 0.3162 µM,0.314
same,relative viability,HOP-62; first compound 1 µM,0.351
same,relative viability,LCLC-103H; first compound 0.01 µM,0.444
same,relative viability,LCLC-103H; first compound 0.03162 µM,0.488
same,relative viability,LCLC-103H; first compound 0.1 µM,0.485
same,relative viability,LCLC-103H; first compound 0.3162 µM,0.457
same,relative viability,LCLC-103H; first compound 1 µM,0.533
same,relative viability,NCI-H1395; first compound 0.01 µM,0.898
same,relative viability,NCI-H1395; first compound 0.03162 µM,0.787
same,relative viability,NCI-H1395; first compound 0.1 µM,0.955
same,relative viability,NCI-H1395; first compound 0.3162 µM,1.06
same,relative viability,NCI-H1395; first compound 1 µM,0.607
same,relative viability,NCI-H1437; first compound 0.01 µM,0.332
same,relative viability,NCI-H1437; first compound 0.03162 µM,0.309
same,relative viability,NCI-H1437; first compound 0.1 µM,0.324
same,relative viability,NCI-H1437; first compound 0.3162 µM,0.328
same,relative viability,NCI-H1437; first compound 1 µM,0.381
same,relative viability,NCI-H1755; first compound 0.01 µM,0.413
same,relative viability,NCI-H1755; first compound 0.03162 µM,0.572
same,relative viability,NCI-H1755; first compound 0.1 µM,0.356
same,relative viability,NCI-H1755; first compound 0.3162 µM,0.448
same,relative viability,NCI-H1755; first compound 1 µM,0.435
same,relative viability,NCI-H1792; first compound 0.01 µM,1.17
same,relative viability,NCI-H1792; first compound 0.03162 µM,0.932
same,relative viability,NCI-H1792; first compound 0.1 µM,0.634
same,relative viability,NCI-H1792; first compound 0.3162 µM,0.945
same,relative viability,NCI-H1792; first compound 1 µM,0.296
same,relative viability,NCI-H1915; first compound 0.01 µM,0.511
same,relative viability,NCI-H1915; first compound 0.03162 µM,0.521
same,relative viability,NCI-H1915; first compound 0.1 µM,0.558
same,relative viability,NCI-H1915; first compound 0.3162 µM,0.518
same,relative viability,NCI-H1915; first compound 1 µM,0.445
same,relative viability,NCI-H2009; first compound 0.01 µM,1.12
same,relative viability,NCI-H2009; first compound 0.03162 µM,1.03
same,relative viability,NCI-H2009; first compound 0.1 µM,1.08
same,relative viability,NCI-H2009; first compound 0.3162 µM,1.18
same,relative viability,NCI-H2009; first compound 1 µM,0.988
same,relative viability,NCI-H2228; first compound 0.01 µM,0.318
same,relative viability,NCI-H2228; first compound 0.03162 µM,0.344
same,relative viability,NCI-H2228; first compound 0.1 µM,0.418
same,relative viability,NCI-H2228; first compound 0.3162 µM,0.326
same,relative viability,NCI-H2228; first compound 1 µM,0.335
same,relative viability,NCI-H23; first compound 0.01 µM,0.666
same,relative viability,NCI-H23; first compound 0.03162 µM,0.566
same,relative viability,NCI-H23; first compound 0.1 µM,0.854
same,relative viability,NCI-H23; first compound 0.3162 µM,0.778
same,relative viability,NCI-H23; first compound 1 µM,0.646
same,relative viability,NCI-H460; first compound 0.01 µM,0.0558
same,relative viability,NCI-H460; first compound 0.03162 µM,0.0576
same,relative viability,NCI-H460; first compound 0.1 µM,0.0567
same,relative viability,NCI-H460; first compound 0.3162 µM,0.056
same,relative viability,NCI-H460; first compound 1 µM,0.0563
same,relative viability,NCI-H522; first compound 0.01 µM,0.989
same,relative viability,NCI-H522; first compound 0.03162 µM,0.918
same,relative viability,NCI-H522; first compound 0.1 µM,1.09
same,relative viability,NCI-H522; first compound 0.3162 µM,0.888
same,relative viability,NCI-H522; first compound 1 µM,0.921
same,relative viability,SK-LU-1; first compound 0.01 µM,0.971
same,relative viability,SK-LU-1; first compound 0.03162 µM,0.93
same,relative viability,SK-LU-1; first compound 0.1 µM,1.1
same,relative viability,SK-LU-1; first compound 0.3162 µM,1.18
same,relative viability,SK-LU-1; first compound 1 µM,0.854
same,relative viability,SW 1573; first compound 0.01 µM,0.858
same,relative viability,SW 1573; first compound 0.03162 µM,0.843
same,relative viability,SW 1573; first compound 0.1 µM,1.08
same,relative viability,SW 1573; first compound 0.3162 µM,0.944
same,relative viability,SW 1573; first compound 1 µM,0.832
